Measurements: patent US20130109682A1, “CYCLIC ETHER COMPOUNDS USEFUL AS KINASE INHIBITORS” (NOVARTIS AG, priority 2010, published 2013)

What was measured:
PIM1 = PIM1 (Homo sapiens, UniProt P11309); test: KinaseGlo Pim1 ATP depletion assay; type: biochemical
Summary of the method: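 IC50 is derived from residual ATP measured by KinaseGlo Plus luminescence once about half the ATP was consumed. Final conditions were 20 μM ATP, 40 μM BAD peptide and 2.5 nM kinase in HEPES pH 7.5 buffer with MgCl2, DTT and BSA, plus 2.5% DMSO. Compound and enzyme were premixed 15 min before ATP addition.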

PIM2 = PIM2 (Homo sapiens, UniProt Q9P1W9); test: KinaseGlo Pim2 ATP depletion assay; type: biochemical
Chain of PIM2 (Q9P1W9 whole entry): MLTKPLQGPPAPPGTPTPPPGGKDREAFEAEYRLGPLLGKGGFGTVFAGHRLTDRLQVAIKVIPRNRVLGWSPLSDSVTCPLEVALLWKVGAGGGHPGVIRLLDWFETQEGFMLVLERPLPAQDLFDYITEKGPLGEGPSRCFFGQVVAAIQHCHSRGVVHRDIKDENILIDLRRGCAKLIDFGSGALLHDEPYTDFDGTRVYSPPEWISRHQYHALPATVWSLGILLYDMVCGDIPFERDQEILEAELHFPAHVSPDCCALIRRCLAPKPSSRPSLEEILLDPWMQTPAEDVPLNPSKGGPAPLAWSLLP
Summary of the method: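 Compound sat 15 min with enzyme and BAD peptide before ATP was added; final levels 5 nM PIM2, 10 μM peptide, 4 μM ATP, 2.5% DMSO, pH 7.5 HEPES buffer with MgCl2, DTT, BSA. Stopped near 50% ATP consumption; remaining ATP measured by luciferase luminescence.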

PIM3 = PIM3 (Homo sapiens, UniProt Q86V86); test: KinaseGlo Pim3 ATP depletion assay; type: biochemical
Summary of the method: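 Residual ATP was detected by luciferase luminescence once about half had been consumed. The reaction contained 5 nM enzyme, 100 μM BAD peptide (RSRHSSYPAGT) and 40 μM ATP in 50 mM HEPES pH 7.5, 5 mM MgCl2, 1 mM DTT and 0.05% BSA with 2.5% DMSO. Compound and enzyme/peptide were premixed 15 min before ATP.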

GSK3β = GSK3β (Homo sapiens, UniProt P49841); test: GSK3β ATP depletion assay; type: biochemical; details: read-out: GSK3b IC50
Chain of GSK3β (P49841 whole entry, species assumed): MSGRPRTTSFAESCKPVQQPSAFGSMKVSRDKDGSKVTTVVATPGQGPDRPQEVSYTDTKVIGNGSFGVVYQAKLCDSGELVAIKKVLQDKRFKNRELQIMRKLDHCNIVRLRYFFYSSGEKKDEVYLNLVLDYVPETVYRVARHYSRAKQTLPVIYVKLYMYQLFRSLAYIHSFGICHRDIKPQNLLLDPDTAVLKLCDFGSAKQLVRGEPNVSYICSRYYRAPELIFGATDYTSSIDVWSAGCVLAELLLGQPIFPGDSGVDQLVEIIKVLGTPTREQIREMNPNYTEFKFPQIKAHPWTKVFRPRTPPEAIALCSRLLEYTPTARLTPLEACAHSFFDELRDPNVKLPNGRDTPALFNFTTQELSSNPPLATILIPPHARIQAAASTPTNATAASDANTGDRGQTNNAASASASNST
Summary of the method: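 Kinase activity is read as ATP consumption: luciferase luminescence reports the ATP remaining once roughly half of the 2 μM ATP is used. Reaction mix: 5 nM GSK3β, 10 μM b-CREB peptide, 50 mM Tris pH 7.5, 15 mM MgCl2, 1 mM DTT, 0.1% BSA, 2.5% DMSO. Enzyme and peptide are preincubated 15 min before ATP is added.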

[1] = system: KMS11 (human myeloma cell line); test: Cell proliferation assay (CellTiter-Glo), KMS11; type: cell-based; details: Homo sapiens, KMS-11; KMS11-Luc cells
Summary of the method: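 EC50 derived from CellTiter-Glo luminescence after 3-day exposure at 37° C. Compound was diluted to 2× in medium and added to an equal volume of cells. KMS11 myeloma cells were plated on assay day at 2000/well in IMDM with 10% FBS and sodium pyruvate.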

Chain of PIM1 (P11309 whole entry): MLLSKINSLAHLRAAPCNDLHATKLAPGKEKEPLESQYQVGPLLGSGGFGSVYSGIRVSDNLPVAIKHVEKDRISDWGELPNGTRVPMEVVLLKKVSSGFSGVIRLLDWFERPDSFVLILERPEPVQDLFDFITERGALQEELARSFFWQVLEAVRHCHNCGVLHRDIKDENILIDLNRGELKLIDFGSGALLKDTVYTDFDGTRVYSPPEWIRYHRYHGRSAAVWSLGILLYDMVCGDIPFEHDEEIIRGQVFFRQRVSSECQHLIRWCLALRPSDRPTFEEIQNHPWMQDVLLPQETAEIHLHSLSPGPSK

Structure (SMILES) | IC50 (PIM1) [nM] | IC50 (PIM2) [nM] | IC50 (PIM3) [nM] | IC50 (GSK3β) [nM] | EC50 [1] [nM]
C[C@H]1[C@H](O)C[C@H](c2ccncc2NC(=O)c2ccc(F)c(-c3c(F)cccc3F)n2)O[C@@H]1C (stereo in doubt) [Example 97, 6-(2,6-difluorophenyl)-5-fluoro-N-(4-((2R,4R,5S,6R)-4-hydroxy-5,6-dimethyltetrahydro-2H-pyran-2-yl)pyridin-3-yl)picolinamide] | 5 | 263 | 37 | 313 | > 10000
O=C(Nc1cnccc1[C@@H]1C[C@H](O)CC2(CC2)O1)c1csc(-c2c(F)cccc2F)n1 [Example 62, 2-(2,6-difluorophenyl)-N-(4-((5S,7S)-7-hydroxy-4-oxaspiro[2.5]octan-5-yl)pyridin-3-yl)thiazole-4-carboxamide] | 2 | 321 | 15 | 27 | > 10000
O=C(Nc1cnccc1[C@H]1C[C@@H](O)[C@@]2(O)CCCC[C@H]2O1)c1ccc(F)c(-c2c(F)cccc2F)n1 [Example 174, 6-(2,6-difluorophenyl)-N-(4-((2R,4R,4aS,8aR)-4,4a-dihydroxyoctahydro-2H-chromen-2-yl)pyridin-3-yl)-5-fluoropicolinamide] | 0.5 | 1.3 | 1.6 | 19.8 | 2630
C=C1[C@H](O)C[C@H](c2ccncc2NC(=O)c2nc(-c3c(F)cccc3F)ncc2N)OC12CC2 [Example 8, 5-amino-2-(2,6-difluorophenyl)-N-(4-((5R,7R)-7-hydroxy-8-methylene-4-oxaspiro[2.5]octan-5-yl)pyridin-3-yl)pyrimidine-4-carboxamide] | 51 | 323 | 149 | 1330 | > 10000
C[C@H]1O[C@@H](c2ccncc2NC(=O)c2csc(-c3c(F)cccc3F)n2)[C@H](F)[C@@H](O)[C@]1(C)O (stereo in doubt) [Example 68, 2-(2,6-difluorophenyl)-N-(4-((2S,3R,4S,5S,6R)-3-fluoro-4,5-dihydroxy-5,6-dimethyltetrahydro-2H-pyran-2-yl)pyridin-3-yl)thiazole-4-carboxamide] | 6 | 3390 | 89 | 1070 | 6000
CC[C@@H]1O[C@H](c2ccncc2NC(=O)c2nc(-c3c(F)cccc3F)c(F)cc2N)C[C@H](O)[C@@]1(C)O [Example 165, 3-amino-6-(2,6-difluorophenyl)-N-(4-((2S,4S,5R,6S)-6-ethyl-4,5-dihydroxy-5-methyltetrahydro-2H-pyran-2-yl)pyridin-3-yl)-5-fluoropicolinamide] | 9 | 67.7 | 35.9 | 2680 | > 10000
O=C(Nc1cnccc1C1=C[C@@H](O)[C@H](O)[C@@H](CO)O1)c1ccc(F)c(-c2c(F)cccc2F)n1 [Example 79, 6-(2,6-difluorophenyl)-N-(4-((2R,3S,4R)-3,4-dihydroxy-2-(hydroxymethyl)-3,4-dihydro-2H-pyran-6-yl)pyridin-3-yl)-5-fluoropicolinamide] | 2 | 17 | 3 | 1450 | > 10000
O=C(Nc1cnccc1[C@H]1C[C@@H](O)[C@H](O)[C@@H](C2CC2)O1)c1cccc(-c2c(F)cccc2F)n1 [Example 208, N-(4-((2R,4R,5S,6R)-6-cyclopropyl-4,5-dihydroxytetrahydro-2H-pyran-2-yl)pyridin-3-yl)-6-(2,6-difluorophenyl)picolinamide] | 4.6 | 8.8 | 6.6 | 796 | > 10000
O=C(Nc1cnccc1[C@@H]1C[C@H](O)CCO1)c1ccc(F)c(-c2c(F)cccc2F)n1 [Example 132, 6-(2,6-difluorophenyl)-5-fluoro-N-(4-((2S,4R)-4-hydroxytetrahydro-2H-pyran-2-yl)pyridin-3-yl)picolinamide] | 6 | 465 | 33 | 196 | > 10000
Nc1cnc(-c2c(F)cccc2F)nc1C(=O)Nc1cnccc1C1=C[C@@H](O)[C@H](O)[C@@H](CCl)O1 [Example 14, 5-amino-N-(4-((2S,3S,4R)-2-(chloromethyl)-3,4-dihydroxy-3,4-dihydro-2H-pyran-6-yl)pyridin-3-yl)-2-(2,6-difluorophenyl)pyrimidine-4-carboxamide] | 1 | 2 | 3 | 70 | 2630
O=C(Nc1cnccc1C1OCCCO1)c1ccc(F)c(-c2c(F)cccc2F)n1 [Example 118, N-(4-(1,3-dioxan-2-yl)pyridin-3-yl)-6-(2,6-difluorophenyl)-5-fluoropicolinamide] | 4 | 363 | 17 | 3520 | > 10000
Nc1cc(F)c(-c2c(F)cccc2F)nc1C(=O)Nc1cnccc1C1=C[C@@H](O)[C@H](O)[C@@H](CCl)O1 [Example 30, 3-amino-N-(4-((2S,3S,4R)-2-(chloromethyl)-3,4-dihydroxy-3,4-dihydro-2H-pyran-6-yl)pyridin-3-yl)-6-(2,6-difluorophenyl)-5-fluoropicolinamide] | 1 | 1 | 1 | 201 | 825
O=C(Nc1cnccc1[C@H]1OCC[C@@H](CO)O1)c1csc(-c2c(F)cccc2F)n1 [Example 102, 2-(2,6-difluorophenyl)-N-(4-((2S,4S)-4-(hydroxymethyl)-1,3-dioxan-2-yl)pyridin-3-yl)thiazole-4-carboxamide] | 28 | 2890 | 103 | 2000 | > 10000
C[C@H]1O[C@@H](c2ccncc2NC(=O)c2ccc(F)c(-c3c(F)cccc3F)n2)C[C@@H](O)[C@@H]1O [Example 119, 6-(2,6-difluorophenyl)-N-(4-((2R,4R,5S,6R)-4,5-dihydroxy-6-methyltetrahydro-2H-pyran-2-yl)pyridin-3-yl)-5-fluoropicolinamide] | 1 | 11 | 2 | 629 | 7200
N#C[C@H]1O[C@@H](c2ccncc2NC(=O)c2ccnc(-c3c(F)cccc3F)n2)C[C@@H](O)[C@@H]1O [Example 149, N-(4-((2R,4R,5S,6R)-6-cyano-4,5-dihydroxytetrahydro-2H-pyran-2-yl)pyridin-3-yl)-2-(2,6-difluorophenyl)pyrimidine-4-carboxamide] | 79.8 | 458 | 143 | 209 | > 10000
Nc1cc(F)c(-c2ccccc2F)nc1C(=O)Nc1cnccc1C1=C[C@@H](O)[C@H](O)[C@@H](CCl)O1 [Example 29, 3-amino-N-(4-((2S,3S,4R)-2-(chloromethyl)-3,4-dihydroxy-3,4-dihydro-2H-pyran-6-yl)pyridin-3-yl)-5-fluoro-6-(2-fluorophenyl)picolinamide] | 1 | 1 | 1 | 41 | 4670
O=C(Nc1cnccc1[C@@H]1C[C@@H](O)[C@H](O)[C@@H](CO)O1)c1ccc(F)c(-c2c(F)cccc2F)n1 [Example 78, 6-(2,6-difluorophenyl)-N-(4-((2S,4R,5S,6R)-4,5-dihydroxy-6-(hydroxymethyl)tetrahydro-2H-pyran-2-yl)pyridin-3-yl)-5-fluoropicolinamide] | 127 | 2520 | 151 | 5820 | 1500
Nc1cnc(-c2c(F)cccc2F)nc1C(=O)Nc1cnccc1[C@H]1C[C@@H](O)[C@H](O)[C@@H](C2CC2)O1 [Example 207, 5-amino-N-(4-((2R,4R,5S,6R)-6-cyclopropyl-4,5-dihydroxytetrahydro-2H-pyran-2-yl)pyridin-3-yl)-2-(2,6-difluorophenyl)pyrimidine-4-carboxamide] | 6.3 | 6 | 8.5 | 572 | 6450
O=C(Nc1cnccc1[C@@H]1CCCCO1)c1ccc(F)c(-c2c(F)cccc2F)n1 [Example 133, (S)-6-(2,6-difluorophenyl)-5-fluoro-N-(4-(tetrahydro-2H-pyran-2-yl)pyridin-3-yl)picolinamide] | 3 | 214 | 10 | 2200 | > 10000
